Assay results from patent publication US7157582B2, “Selective iGluR5 receptor antagonists” (Eli Lilly and Company, priority 1999, dated 2007).

Assays:
[1] = system: dural protein extravasation; experiment: Animal model of dural protein extravasation (rat); format: in vivo; conditions: for Inhibition of Dural Protein Extravasation ID50: rat, i.v.
Method: (§1) The following animal model was employed to determine the ability of each of the panel of compounds to inhibit protein extravasation, an exemplary functional assay of the neuronal mechanism of migraine.
Harlan Sprague-Dawley rats (225–325 g) or guinea pigs from Charles River Laboratories (225–325 g) were anesthetized with sodium pentobarbital intraperitoneally (65 mg/kg or 45 mg/kg respectively) and placed in a stereotaxic frame (David Kopf Instruments) with the incisor bar set at −3.5 mm for rats or −4.0 mm for guinea pigs. Following a midline sagital scalp incision, two pairs of bilateral holes were drilled through the skull (6 mm posterially, 2.0 and 4.0 mm laterally in rats; 4 mm posteriorly and 3.2 and 5.2 mm laterally in guinea pigs, all coordinates referenced to bregma). Pairs of stainless steel stimulating electrodes, insulated except at the tips (Rhodes Medical Systems, Inc.), were lowered through the holes in both hemispheres to a depth of 9 mm (rats) or 10.5 mm (guinea pigs) from dura.
The femoral vein was exposed and a dose of the test compound was injected intravenously (i.v.) at a dosing volume of 1 ml/Kg or, in the alternative, test compound was administered orally (p.o) via gavage at a volume of 2.0 ml/Kg. Approximately 7 minutes post i.v. injection, a 50 mg/Kg dose of Evans Blue, a fluorescent dye, was also injected intravenously. The Evans Blue complexed with proteins in the blood and functioned as a marker for protein extravasation. Exactly 10 minutes post-injection of the test compound, the left trigeminal ganglion was stimulated for 3 minutes at a current intensity of 1.0 mA (5 Hz, 4 msec duration) with a Model 273 potentiostat/galvanostat (EG&G Princeton Applied Research).
Fifteen minutes following stimulation, the animals were killed and exsanguinated with 20 mL of saline. The top of the skull was removed to facilitate the collection of the dural membranes. […]
(§2) A fluorescence microscope (Zeiss) equipped with a grating monchromator and a spectrophotometer was used to quantify the amount of Evans Blue dye in each sample. An excitation wavelength of approximately 535 nm was utilized and the emission intensity at 600 nm was determined. […] This facilitated the computer-controlled movement of the stage with fluorescence measurements at 25 points ([…]) on each dural sample. The mean and standard deviation of the measurements were determined by the computer.
(§3) The extravasation induced by the electrical stimulation of the trigeminal ganglion was an ipsilateral effect (i.e. occurs only on the side of the dura in which the trigeminal ganglion was stimulated). […] The ratio of the amount of extravasation in the dura from the stimulated side, over the amount of extravasation in the unstimulated side, was calculated. […]

[2] = system: dural protein extravasation; experiment: Animal model of dural protein extravasation (guinea pig); format: in vivo; conditions: Gpig (guinea pig), i.v.
Method: as §1
Harlan Sprague-Dawley rats (225–325 g) or guinea pigs from Charles River Laboratories (225–325 g) were anesthetized with sodium pentobarbital intraperitoneally (65 mg/kg or 45 mg/kg respectively) and placed in a stereotaxic frame (David Kopf Instruments) with the incisor bar set at −3.5 mm for rats or −4.0 mm for guinea pigs. […]
as §2, §3

| SMILES | Inhibition of Dural Protein Extravasation ID50 [1] | Inhibition of Dural Protein Extravasation ID50 [2] | Inhibition of Dural Protein Extravasation ID100 ([1]; p.o., species not given) |
| --- | --- | --- | --- |
| O=C(O)[C@@H]1C[C@H]2C[C@@H](CCSc3nnn[nH]3)CC[C@H]2CN1 [Compound III] | .0053 (rat) ng/Kg | – | – |
| O=C(O)c1ccc(C[C@H]2CC[C@H]3CN[C@H](C(=O)O)C[C@H]3C2)cc1 [Compound I, 3S,4aR,6S,8aR-6-(((4-carboxy)phenyl)methyl)-1,2,3,4,4a,5,6,7,8,8a-decahydroisoquinoline-3-carboxylic acid] | 6.5 (rat), ng/Kg | 4.0 (Gpig) ng/Kg | – |
| O=C(O)[C@@H]1C[C@H]2C[C@@H](COCc3nnn[nH]3)CC[C@H]2CN1 [Compound II, 3S,4aR,6S,8aR-6-((((1H-Tetrazole-5-yl)methyl)oxy)methyl)-1,2,3,4,4a,5,6,7,8,8a-decahydroisoquinoline-3-carboxylic acid] | 15 (rat) ng/Kg | – | – |
| CCOC(=O)[C@@H]1C[C@H]2C[C@@H](CN3CC(F)(F)C[C@H]3C(=O)OCC)CC[C@H]2CN1 [Compound IV(b), 3S,4aR,6S,8aR Ethyl 6-(((2S)-2-(Ethoxycarbonyl)-4,4-difluoropyrrolidinyl)methyl)-1,2,3,4,4a,5,6,7,8,8a-decahydroisoquinoline-3-carboxylate] | – | – | 1e-05 µg/kg |
